Measured values published in PubChem BioAssay AID1259411 (Chemical Carcinogenesis Research Information System (CCRIS), 2018).
Calls of active or inactive are those of the source. No rule for the calls is given here.

Test system: rodent carcinogenicity bioassays, tumor incidence
Assay: CCRIS carcinogenicity studies
Procedure, shortened: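 Archive of carcinogenicity, mutagenicity, tumor promotion and tumor inhibition results drawn from journals, NCI reports and other sources, expert-reviewed; covers 1985-2011 and is no longer updated.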

SMILES: [Cd]
- carcinogen call (Species: HUMAN, Route: INHALATION, ORAL, DERMAL, Tumor Site: Type of Lesion: PROSTATE GLAND): active; positive
- carcinogen call (Species: RAT, Strain/Sex: F344/MALE,FEMALE, Route: INTRAMUSCULAR, Dose: 5 MG GIVEN IN 2 INJECTIONS AT MONTHLY INTERVALS (STUDY DURATION: 12 MO), Tumor Site: Type of Lesion: INJECTION SITE: FIBROSARCOMA): active; positive
- carcinogen call (Species: RAT, Strain/Sex: LONG-EVANS/FEMALE, Route: INTRAMUSCULAR, Dose: 14, 28 MG, Tumor Site: Type of Lesion: INJECTION SITE: RHABDOMYOSARCOMA, FIBROSARCOMA): active; positive

SMILES: CC(=O)N(O)c1ccc(-c2ccccc2)cc1
- carcinogen call (Species: RAT, Strain/Sex: STRAIN-CD/FEMALE, Route: INTRAPERITONEAL, Dose: 0, 100 UMOL/KG BW 2/WK FOR 6 WK (STUDY DURATION: 62 WK)): inactive; negative

SMILES: Cc1ccc(Nc2ccc(O)c3c2C(=O)c2ccccc2C3=O)cc1
- carcinogen call (Species: MOUSE, Strain/Sex: SWISS-WEBSTER/FEMALE, Route: DERMAL, Dose: 0, 1% IN 0.1 ML 0.1% SODIUM LAURYL SULFATE 1/WK FOR 18 MO (STUDY DURATION: 18 MO)): inactive; negative
- carcinogen call (Species: MOUSE, Strain/Sex: SWISS-WEBSTER/MALE, Route: DERMAL, Dose: 0, 1% IN 0.1 ML 0.1% SODIUM LAURYL SULFATE 1/WK FOR 18 MO (STUDY DURATION: 18 MO)): inactive; negative

SMILES: C=C(C)[C@H]1Cc2c(ccc3c2O[C@@H]2COc4cc(OC)c(OC)cc4[C@@H]2C3=O)O1
- carcinogen call (Species: MOUSE, Strain/Sex: B6C3F1/FEMALE, Route: ORAL, Dose: 0, 600, 1200 PPM IN DIET FOR 103 WK (STUDY DURATION: 105 WK), Dose: 0, 600, 1200 PPM IN DIET FOR 103 WK (STUDY DURATION: 105 WK)): inactive; negative
- carcinogen call (Species: MOUSE, Strain/Sex: B6C3F1/MALE, Route: ORAL, Dose: 0, 600, 1200 PPM IN DIET FOR 103 WK (STUDY DURATION: 105 WK), Dose: 0, 600, 1200 PPM IN DIET FOR 103 WK (STUDY DURATION: 105 WK)): inactive; negative
- carcinogen call (Species: RAT, Strain/Sex: F344/FEMALE, Route: ORAL, Dose: 0, 38, 75 PPM IN DIET FOR 103 WK (STUDY DURATION: 105 WK), Dose: 0, 38, 75 PPM IN DIET FOR 103 WK (STUDY DURATION: 105 WK)): inactive; negative
- carcinogen call (Species: RAT, Strain/Sex: F344/MALE, Route: ORAL, Dose: 0, 38, 75 PPM IN DIET FOR 103 WK (STUDY DURATION: 105 WK), Dose: 0, 38, 75 PPM IN DIET FOR 103 WK (STUDY DURATION: 105 WK), Tumor Site: Type of Lesion: PARATHYROID GLAND: ADENOMA): equivocal
- carcinogen call (Species: RAT, Strain/Sex: WISTAR/FEMALE, Route: INTRAPERITONEAL, Dose: 0, 1, 2 MG/KG IN SUNFLOWER OIL 5 D/WK FOR 8 WK (STUDY DURATION: 18 MO), Dose: 0, 1, 2 MG/KG IN SUNFLOWER OIL 5 D/WK FOR 8 WK (STUDY DURATION: 18 MO)): inactive; negative
- carcinogen call (Species: RAT, Strain/Sex: WISTAR/FEMALE, Route: INTRAPERITONEAL, Dose: 0, 1, 2 MG/KG IN SUNFLOWER OIL/CHLOROFORM (9:1) 5 D/WK FOR 8 WK (STUDY DURATION: 18 MO), Dose: 0, 1, 2 MG/KG IN SUNFLOWER OIL/CHLOROFORM (9:1) 5 D/WK FOR 8 WK (STUDY DURATION: 18 MO)): inactive; negative

SMILES: CCCCCCCCCCCCN=C(N)N
- carcinogen call (Species: Mouse, Strain/Sex: Crl:CD-1(ICR)BR/Female (70/Group), Route: Oral, Dose: 0, 200, 750, 1500 ppm in diet for 78 wk, study duration 78 wk. Test sample purity, 98%., Dose: 0, 200, 750, 1500 ppm in diet for 78 wk, study duration 78 wk. Test sample purity, 98%., Tumor Site: Type of Lesion: Liver: Hepatocellular adenoma and carcinoma combined (high dose only)): active; positive, (neither tumor type, alone, was statistically significant.)
- carcinogen call (Species: Mouse, Strain/Sex: Crl:CD-1(ICR)BR/Male (70/Group), Route: Oral, Dose: 0, 200, 750, 1500 ppm in diet for 78 wk, study duration 78 wk. Test sample purity, 98%., Dose: 0, 200, 750, 1500 ppm in diet for 78 wk, study duration 78 wk. Test sample purity, 98%.): inactive; negative
- carcinogen call (Species: Rat, Strain/Sex: Sprague-Dawley/Female (60/Group), Route: Oral, Dose: 0, 13.2, 26.5, 53.5 mg/kg/day in diet on wks 1-101, study duration 2 yrs. Test sample purity, 98.6%., Dose: 0, 13.2, 26.5, 53.5 mg/kg/day in diet on wks 1-101, study duration 2 yrs. Test sample purity, 98.6%.): inactive; negative
- carcinogen call (Species: Rat, Strain/Sex: Sprague-Dawley/Male (60/Group), Route: Oral, Dose: 0, 10.2, 20.3, 41.9 mg/kg/day in diet on wks 1-101, study duration 2 yrs. Test sample purity, 98.6%, Dose: 0, 10.2, 20.3, 41.9 mg/kg/day in diet on wks 1-101, study duration 2 yrs. Test sample purity, 98.6%): inactive; negative

SMILES: O=C1O[C@@H](CN2CCOCC2)CN1N=Cc1ccc([N+](=O)[O-])o1
- carcinogen call (Species: RAT, Route: ORAL, Tumor Site: Type of Lesion: LYMPHATIC SYSTEM: LYMPHOBLASTIC LYMPHOMA, MAMMARY GLAND): active; positive

SMILES: C[C@H]1C[C@]2(C)[C@@H](O)CC[C@H]2[C@@H]2CCc3cc(O)ccc3[C@H]21
- carcinogen call (Species: HAMSTER, Strain/Sex: SYRIAN/MALE, Route: SUBCUTANEOUS IMPLANT, Dose: 0, 20 MG IN PELLETS IMPLANTED EVERY 2.5 MO FOR 9 MO (STUDY DURATION: 9 MO)): inactive; negative

SMILES: C/C=C/C=O
- carcinogen call (Species: MOUSE, Strain/Sex: B6C3F1/FEMALE, Route: INTRAPERITONEAL, Dose: 0, 1500 NMOL TOTAL DOSE, 1/3 AND 2/3 OF THE TOTAL DOSE ADMINISTERED AT 8 AND 15 DAYS OF AGE RESPECTIVELY, ANIMALS TERMIN): inactive; negative
- carcinogen call (Species: MOUSE, Strain/Sex: B6C3F1/FEMALE, Route: INTRAPERITONEAL, Dose: 0, 3000 NMOL TOTAL DOSE, 1/3 AND 2/3 OF THE TOTAL DOSE ADMINISTERED AT 8 AND 15 DAYS OF AGE RESPECTIVELY, ANIMALS TERMIN): inactive; negative
- carcinogen call (Species: MOUSE, Strain/Sex: B6C3F1/MALE, Route: INTRAPERITONEAL, Dose: 0, 1500 NMOL TOTAL DOSE, 1/3 AND 2/3 OF THE TOTAL DOSE ADMINISTERED AT 8 AND 15 DAYS OF AGE RESPECTIVELY, ANIMALS TERMIN): inactive; negative
- carcinogen call (Species: MOUSE, Strain/Sex: B6C3F1/MALE, Route: INTRAPERITONEAL, Dose: 0, 3000 NMOL TOTAL DOSE, 1/3 AND 2/3 OF THE TOTAL DOSE ADMINISTERED AT 8 AND 15 DAYS OF AGE RESPECTIVELY, ANIMALS TERMIN): inactive; negative

SMILES: OC(c1ccc(Cl)cc1)(c1ccc(Cl)cc1)C(Cl)(Cl)Cl
- carcinogen call (Species: MOUSE, Strain/Sex: B6C3F1/FEMALE, Route: ORAL, Dose: 0, 122, 243 PPM IN DIET, Dose: 0, 122, 243 PPM IN DIET): inactive; negative
- carcinogen call (Species: MOUSE, Strain/Sex: B6C3F1/MALE, Route: ORAL, Dose: 0, 264, 528 PPM IN DIET, Dose: 0, 264, 528 PPM IN DIET, Tumor Site: Type of Lesion: LIVER: HEPATOCELLULAR CARCINOMA OR HEPATOCELLULAR ADENOMA): active; positive
- carcinogen call (Species: RAT, Strain/Sex: OSBORNE-MENDEL/FEMALE, Route: ORAL, Dose: 0, 380, 760 PPM IN DIET, Dose: 0, 380, 760 PPM IN DIET): inactive; negative
- carcinogen call (Species: RAT, Strain/Sex: OSBORNE-MENDEL/MALE, Route: ORAL, Dose: 0, 471, 942 PPM IN DIET, Dose: 0, 471, 942 PPM IN DIET): inactive; negative

SMILES: CNC(=O)ON=C(SC)C(=O)N(C)C
- carcinogen call (Species: MOUSE, Strain/Sex: CD-1/FEMALE, Route: ORAL, Dose: 0, 25, 50, 75 PPM IN DIET FOR 2 YR (STUDY DURATION: 2 YR), Dose: 0, 25, 50, 75 PPM IN DIET FOR 2 YR (STUDY DURATION: 2 YR)): inactive; negative
- carcinogen call (Species: MOUSE, Strain/Sex: CD-1/MALE, Route: ORAL, Dose: 0, 25, 50, 75 PPM IN DIET FOR 2 YR (STUDY DURATION: 2 YR), Dose: 0, 25, 50, 75 PPM IN DIET FOR 2 YR (STUDY DURATION: 2 YR)): inactive; negative
- carcinogen call (Species: RAT, Strain/Sex: CRL:CD/FEMALE, Route: ORAL, Dose: 0, 50, 100, 150 PPM IN DIET FOR 2 YR (STUDY DURATION: 2 YR), Dose: 0, 50, 100, 150 PPM IN DIET FOR 2 YR (STUDY DURATION: 2 YR)): inactive; negative
- carcinogen call (Species: RAT, Strain/Sex: CRL:CD/MALE, Route: ORAL, Dose: 0, 50, 100, 150 PPM IN DIET FOR 2 YR (STUDY DURATION: 2 YR), Dose: 0, 50, 100, 150 PPM IN DIET FOR 2 YR (STUDY DURATION: 2 YR)): inactive; negative

SMILES: Cc1c2ccccc2c(C)c2c3c(ccc12)[C@H](O)[C@@H](O)C=C3
- carcinogen call (Species: RAT, Strain/Sex: SPRAGUE-DAWLEY/FEMALE (8/GROUP), Route: SUBCUTANEOUS, Dose: 0.1 UMOL 3X A WK FOR 20 DOSES (STUDY DURATION: 38 WK), Tumor Site: Type of Lesion: MAMMARY: ADENOCARCINOMA): active; positive (100%); no tumors at injection site
- carcinogen call (Species: RAT, Strain/Sex: SPRAGUE-DAWLEY/FEMALE (8/GROUP), Route: SUBCUTANEOUS, Dose: 0.2 UMOL 3X A WK FOR 20 DOSES (STUDY DURATION: 30 WK), Tumor Site: Type of Lesion: MAMMARY: ADENOCARCINOMA): active; positive (100%); no tumors at injection site

SMILES: COCCOC1=C(N2CC2)C(=O)C(OCCOC)=C(N2CC2)C1=O
- carcinogen call (Species: MOUSE, Route: INTRAPERITONEAL, Tumor Site: Type of Lesion: LUNG): active; positive
